{"source": "patent US20150173371A1", "about": "(Dow AgroSciences LLC, priority 2013, published 2015)", "key": {"[1]": {"test_system": "Abutilon theophrasti (velvetleaf, ABUTH)", "experiment": "Greenhouse trial, % visual weed control", "type": "in vivo", "details": "14DAA", "protocol": "(§1) Greenhouse trials were conducted under controlled environment greenhouse conditions, with plants grown in pots with Metromix soil and bottom watered. Treatments were applied with 3 replicates per treatment, using a track sprayer with 2 flat fan nozzles at 40 pounds per square inch (PSI). Water was used as the diluent at 140 liters per hectare (L/ha), with weeds being 2-4 leaf stage and approximately 3 inches in height at treatment."}, "[2]": {"test_system": "Ambrosia artemisiifolia (common ragweed, AMBEL)", "experiment": "Greenhouse trial, % visual weed control", "type": "in vivo", "details": "14DAA, 105 g ae/ha alone", "protocol": "as §1"}, "[3]": {"test_system": "Chenopodium album (common lambsquarter, CHEAL)", "experiment": "Greenhouse trial, % visual weed control", "type": "in vivo", "details": "14DAA", "protocol": "as §1"}, "[4]": {"test_system": "Elymus repens (quackgrass, AGRRE)", "experiment": "Greenhouse trial, % visual weed control", "type": "in vivo", "details": "14DAA, 210 g ae/ha alone", "protocol": "as §1"}, "[5]": {"test_system": "Conyza bonariensis (hairy fleabane, ERIBO)", "details": "field trial", "protocol": "(§2) Field trials were conducted under normal field conditions in multiple states in the United States, including but not limited to Alabama, Mississipi, South Carolina and Tennessee; and in Brazil, including but not limited to the states of Goias, Mato Grosso, Parana, Rio Grande do Sul, and Sao Paulo. Trials were established as RCB (randomized complete block) design, with 3-4 replicates per treatment, and plot sizes varying from 2-3 meters (m) wide by 4-8 m long. Treatments were applied with small plot backpack sprayers, using pressurized carbon dioxide (CO2) as propellant. Pressure varied from 22-40 PSI, with spray tips typically of a Flat Fan type applying water diluent at 150 L/ha. Boom sizes varied from 2-3 m in width. Treatments were applied to soybean, cotton or fallow crop land. Weed sizes varied, but all treatments were applied as post-emergence treatments to weeds from 2 leaf to 2 tiller growth stages varying from 2-15 inches (in) in height. No additional adjuvant was mixed with the treatments applied in the field\n(§3) The treated plots and control plots were rated blind at various intervals after application.\n(§4) Colby's equation was used to determine the herbicidal effects expected from the mixtures (Colby, S. R. Calculation of the synergistic and antagonistic response of herbicide combinations. Weeds 1967 15, 20-22). A t-test (alpha=0.05) between Colby predictions and observed combinations was used to test for significant differences indicating synergy or antagonism.\n(§5) The following equation was used to calculate the expected activity of mixtures containing two active ingredients, A and B:\n(§6) Expected=A+B−(A×B/100) • A=observed efficacy of active ingredient A at the same concentration as used in the mixture; • B=observed efficacy of active ingredient B at the same concentration as used in the mixture."}, "[6]": {"test_system": "Conyza canadensis (horseweed, ERICA)", "details": "field trial", "protocol": "as §2, §3, §4, §5, §6"}, "[7]": {"test_system": "Amaranthus palmeri (Palmer pigweed, AMAPA)", "experiment": "Field trial, % visual weed control", "type": "in vivo", "description": "(§7) Boom sizes varied from 2-3 m in width."}, "[8]": {"test_system": "Brachiaria decumbens (Surinam grass, BRADC)", "experiment": "Field trial, % visual weed control", "type": "in vivo", "details": "12DAA, 720 g ae/ha alone", "description": "as §7"}, "[9]": {"test_system": "Commelina benghalensis (hairy wandering Jew, COMBE)", "experiment": "Field trial, % visual weed control", "type": "in vivo", "details": "800 g ae/ha alone", "description": "as §7"}, "[10]": {"test_system": "Euphorbia heterophylla (wild poinsettia, EPHHL)", "experiment": "Field trial, % visual weed control", "type": "in vivo", "details": "28DAA, 615 g ae/ha alone", "description": "as §7"}, "[11]": {"test_system": "Euphorbia hirta (garden spurge, EPHHI)", "experiment": "Field trial, % visual weed control", "type": "in vivo", "description": "as §7"}, "[12]": {"test_system": "Glycine max (soybean, glyphosate tolerant, GLXMA)", "experiment": "Field trial, % visual weed control", "type": "in vivo", "description": "as §7"}, "[13]": {"test_system": "Ipomoea grandifolia (Corda-de-viola, IAQGR)", "experiment": "Field trial, % visual weed control", "type": "in vivo", "details": "17DAA, 800 g ae/ha alone", "description": "as §7"}, "[14]": {"test_system": "Ipomoea species (morningglory, IPOSS)", "experiment": "Field trial, % visual weed control", "type": "in vivo", "details": "8DAA, 840 g ae/ha alone", "description": "as §7"}, "[15]": {"test_system": "Jacquemontia tamnifolia (smallflower morningglory, IAQTA)", "experiment": "Field trial, % visual weed control", "type": "in vivo", "details": "7DAA, 1120 g ae/ha alone", "description": "as §7"}, "[16]": {"test_system": "Raphanus raphanistrim (wild radish, RAPRA)", "experiment": "Field trial, % visual weed control", "type": "in vivo", "details": "6DAA, 800 g ae/ha alone", "description": "as §7"}, "[17]": {"test_system": "Sesbania exaltata (hemp sesbania, SEBEX)", "experiment": "Field trial, % visual weed control", "type": "in vivo", "details": "8DAA, 840 g ae/ha alone", "description": "as §7"}, "[18]": {"test_system": "Spermacoce latifolia (broadleaf buttonweed, BOILF)", "experiment": "Field trial, % visual weed control", "type": "in vivo", "description": "as §7"}, "[19]": {"test_system": "Tridax procumbens L (tridax daisy, TRQPR)", "experiment": "Field trial, % visual weed control", "type": "in vivo", "details": "16DAA, 800 g ae/ha alone", "description": "as §7"}}, "note": "“And” between values parts separate entries of the source, which are not always exact repeats. Equal values may be shown once. Read-outs that look alike come from different tables or passages of the source.", "data": [{"smiles": "CNC.O=C(O)CNCP(=O)(O)O", "note": "[Glyphosate-DMA, dimethylamine salt of N-(phosphonomethyl)glycine]", "values": [{"measurement": "Mean % Weed Control", "setting": "[1]; 105 g ae/ha alone", "result": 0.0, "unit": "%"}, {"measurement": "Mean % Weed Control", "setting": "[1]; 210 g ae/ha alone", "result": 3.3, "unit": "%"}, {"measurement": "Mean % Weed Control", "setting": "[1]; 420 g ae/ha alone", "result": 63.3, "unit": "%"}, {"measurement": "Mean % Weed Control", "setting": "[1]; 840 g ae/ha alone", "result": 85.0, "unit": "%"}, {"measurement": "Mean % Weed Control", "setting": "[2]", "result": 26.7, "unit": "%"}, {"measurement": "Mean % Weed Control", "setting": "[3]; 105 g ae/ha alone", "result": 0.0, "unit": "%"}, {"measurement": "Mean % Weed Control", "setting": "[3]; 210 g ae/ha alone", "result": 21.7, "unit": "%"}, {"measurement": "Mean % Weed Control", "setting": "[3]; 420 g ae/ha alone", "result": 70.0, "unit": "%"}, {"measurement": "Mean % Weed Control", "setting": "[4]", "result": 12.5, "unit": "%"}, {"measurement": "Mean % Weed Control", "setting": "[5]; 6DAA, 360 g ae/ha alone", "result": 6.3, "unit": "%"}, {"measurement": "Mean % Weed Control", "setting": "[5]; 6DAA, 720 g ae/ha alone", "result": 5.0, "unit": "%"}, {"measurement": "Mean % Weed Control", "setting": "[5]; 6DAA, 1080 g ae/ha alone", "result": 12.5, "unit": "%"}, {"measurement": "Mean % Weed Control", "setting": "[5]; 7DAA, 800 g ae/ha alone", "result": "13.8% and 11.3%"}, {"measurement": "Mean % Weed Control", "setting": "[5]; 10DAA, 800 g ae/ha alone", "result": 41.3, "unit": "%"}, {"measurement": "Mean % Weed Control", "setting": "[5]; 20DAA, 800 g ae/ha alone", "result": 35.0, "unit": "%"}, {"measurement": "Mean % Weed Control", "setting": "[5]; 21DAA, 800 g ae/ha alone", "result": 36.3, "unit": "%"}, {"measurement": "Mean % Weed Control", "setting": "[5]; 28DAA, 800 g ae/ha alone", "result": "53.8% and 32.5% and 33.8%"}, {"measurement": "Mean % Weed Control", "setting": "[5]; 31DAA, 800 g ae/ha alone", "result": 38.8, "unit": "%"}, {"measurement": "Mean % Weed Control", "setting": "[5]; 36DAA, 800 g ae/ha alone", "result": "75.0% and 55.0%"}, {"measurement": "Mean % Weed Control", "setting": "[6]; 10DAA, 960 g ae/ha alone", "result": 10, "unit": "%"}, {"measurement": "Mean % Weed Control", "setting": "[6]; 14DAA, 840 g ae/ha alone", "result": 67.5, "unit": "%"}, {"measurement": "Mean % Weed Control", "setting": "[6]; 15DAA, 960 g ae/ha alone", "result": 15, "unit": "%"}, {"measurement": "Mean % Weed Control", "setting": "[6]; 21DAA, 840 g ae/ha alone", "result": 68.8, "unit": "%"}, {"measurement": "Mean % Weed Control", "setting": "[6]; 28DAA, 840 g ae/ha alone", "result": 78.3, "unit": "%"}, {"measurement": "Mean % Weed Control", "setting": "[6]; 31DAA, 960 g ae/ha alone", "result": 51.7, "unit": "%"}, {"measurement": "Mean % Weed Control", "setting": "[7]; 7DAA, 840 g ae/ha alone", "result": 52.5, "unit": "%"}, {"measurement": "Mean % Weed Control", "setting": "[7]; 13DAA, 1120 g ae/ha alone", "result": 60.0, "unit": "%"}, {"measurement": "Mean % Weed Control", "setting": "[7]; 21DAA, 1120 g ae/ha alone", "result": 61.3, "unit": "%"}, {"measurement": "Mean % Weed Control", "setting": "[8]", "result": 73.8, "unit": "%"}, {"measurement": "Mean % Weed Control", "setting": "[9]; 12DAA", "result": 50.0, "unit": "%"}, {"measurement": "Mean % Weed Control", "setting": "[9]; 15DAA", "result": "62.5% and 43.8%"}, {"measurement": "Mean % Weed Control", "setting": "[9]; 18DAA", "result": 51.3, "unit": "%"}, {"measurement": "Mean % Weed Control", "setting": "[9]; 27DAA", "result": 70.0, "unit": "%"}, {"measurement": "Mean % Weed Control", "setting": "[9]; 28DAA", "result": 63.8, "unit": "%"}, {"measurement": "Mean % Weed Control", "setting": "[9]; 35DAA", "result": 67.5, "unit": "%"}, {"measurement": "Mean % Weed Control", "setting": "[10]", "result": 68.3, "unit": "%"}, {"measurement": "Mean % Weed Control", "setting": "[11]; 7DAA, 800 g ae/ha alone", "result": 43.8, "unit": "%"}, {"measurement": "Mean % Weed Control", "setting": "[11]; 18DAA, 800 g ae/ha alone", "result": 50.0, "unit": "%"}, {"measurement": "Mean % Weed Control", "setting": "[11]; 21DAA, 800 g ae/ha alone", "result": 41.3, "unit": "%"}, {"measurement": "Mean % Weed Control", "setting": "[11]; 24DAA, 480 g ae/ha alone", "result": 50.0, "unit": "%"}, {"measurement": "Mean % Weed Control", "setting": "[12]; 7DAA, 960 g ae/ha alone", "result": 0.0, "unit": "%"}, {"measurement": "Mean % Weed Control", "setting": "[12]; 16DAA, 480 g ae/ha alone", "result": 0.0, "unit": "%"}, {"measurement": "Mean % Weed Control", "setting": "[12]; 28DAA, 480 g ae/ha alone", "result": 0.0, "unit": "%"}, {"measurement": "Mean % Weed Control", "setting": "[12]; 28DAA, 960 g ae/ha alone", "result": 0.0, "unit": "%"}, {"measurement": "Mean % Weed Control", "setting": "[12]; 30DAA, 480 g ae/ha alone", "result": 0.0, "unit": "%"}, {"measurement": "Mean % Weed Control", "setting": "[13]", "result": 87.0, "unit": "%"}, {"measurement": "Mean % Weed Control", "setting": "[14]", "result": 48.8, "unit": "%"}, {"measurement": "Mean % Weed Control", "setting": "[15]", "result": 86.3, "unit": "%"}, {"measurement": "Mean % Weed Control", "setting": "[16]", "result": 85.0, "unit": "%"}, {"measurement": "Mean % Weed Control", "setting": "[17]", "result": 53.8, "unit": "%"}, {"measurement": "Mean % Weed Control", "setting": "[18]; 18DAA, 800 g ae/ha alone", "result": 47.5, "unit": "%"}, {"measurement": "Mean % Weed Control", "setting": "[18]; 21DAA, 800 g ae/ha alone", "result": 79.5, "unit": "%"}, {"measurement": "Mean % Weed Control", "setting": "[18]; 24DAA, 480 g ae/ha alone", "result": 51.7, "unit": "%"}, {"measurement": "Mean % Weed Control", "setting": "[18]; 27DAA, 800 g ae/ha alone", "result": 72.5, "unit": "%"}, {"measurement": "Mean % Weed Control", "setting": "[18]; 28DAA, 800 g ae/ha alone", "result": 77.5, "unit": "%"}, {"measurement": "Mean % Weed Control", "setting": "[19]", "result": 47.5, "unit": "%"}]}]}
